Assay results taken from patent US9096591B2, “Tetracyclic compounds” (Medivation Technologies, Inc., priority 2007, dated 2015).
Where two headings read alike, the source gives them in different places.

Columns and labels:
[1] = target: T1, human recombinant histamine H1 receptor (Homo sapiens, UniProt P35367); experiment: Histamine H1 radioligand binding ([3H]Pyrilamine)
T1 construct: expressed in transfected cells; host or cells: CHO cells
Outline: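 CHO-expressed receptor in modified Tris-HCl buffer (50 mM, pH 7.4; 2 mM MgCl2, 100 mM NaCl, 250 mM sucrose); bound ligand measured after filtration and washing.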

[2] = target: T2, human recombinant adrenergic α2B receptor (Homo sapiens, UniProt P18089); experiment: Adrenergic α2B radioligand binding ([3H]Rauwolscine); set-up: Inhibition of ligand binding, Adren. alpha2B: concentration or dose not given beside the values; details: for Inhibition of ligand binding, Adren. alpha2B: percent inhibition of specific binding; for inhibition at 1 µM: compounds screened at 1 μM, read-out: Inhibition of ligand binding, Adren. alpha2B (percent inhibition of specific binding)
T2 construct: expressed in transfected cells; host or cells: CHO-K1 cells
T2 sequence (P18089 1-450): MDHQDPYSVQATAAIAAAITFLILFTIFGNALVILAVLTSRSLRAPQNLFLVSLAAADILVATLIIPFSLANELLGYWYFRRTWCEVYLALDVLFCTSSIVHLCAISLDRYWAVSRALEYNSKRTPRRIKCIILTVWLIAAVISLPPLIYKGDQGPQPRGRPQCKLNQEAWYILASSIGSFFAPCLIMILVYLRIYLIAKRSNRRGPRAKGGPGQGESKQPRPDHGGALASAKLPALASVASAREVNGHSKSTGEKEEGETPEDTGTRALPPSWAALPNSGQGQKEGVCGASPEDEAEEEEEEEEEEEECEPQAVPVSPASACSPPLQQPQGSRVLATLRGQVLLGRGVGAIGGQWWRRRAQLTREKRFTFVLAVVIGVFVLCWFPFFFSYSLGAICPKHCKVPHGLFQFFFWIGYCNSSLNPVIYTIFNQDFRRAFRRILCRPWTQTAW
Outline: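 Incubation ran 60 minutes at 25 °C in modified Tris-HCl buffer (50 mM, pH 7.4, 12.5 mM MgCl2, 1 mM EDTA, 0.2% BSA) using CHO-K1-expressed human receptor.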

[3] = target: T3, human recombinant dopamine D2L receptor (Homo sapiens, UniProt P14416); experiment: Dopamine D2L radioligand binding ([3H]Spiperone); details: for Inhibition of ligand binding, Dop. D2L: percent inhibition of specific binding; for inhibition at 1 µM: compounds screened at 1 μM, read-out: Inhibition of ligand binding, Dop. D2L (percent inhibition of specific binding)
T3 construct: expressed in transfected cells; host or cells: CHO cells
Description: Non-specific binding was estimated in the presence of 10 μM Haloperidol. Receptor proteins were filtered and washed, the filters were then counted to determine [^3H]Spiperone specifically bound. […] Biochemical assay results are presented as the percent inhibition of specific binding in Table 6.

[4] = target: T4, human recombinant serotonin (5-Hydroxytryptamine) 5-HT6 receptor (Homo sapiens, UniProt P50406); experiment: Serotonin 5-HT6 radioligand binding ([3H]LSD); set-up: Inhibition of ligand binding, Ser. 5-HT6: concentration or dose not given beside the values; details: for Inhibition of ligand binding, Ser. 5-HT6: percent inhibition of specific binding; for inhibition at 1 µM: compounds screened at 1 μM, read-out: Inhibition of ligand binding, Ser. 5-HT6 (percent inhibition of specific binding)
T4 construct: expressed in transfected cells; host or cells: human HeLa cells
Description: Receptor proteins were filtered and washed, the filters were then counted to determine [3H]LSD specifically bound. […] Biochemical assay results are presented as the percent inhibition of specific binding in Table 6.

[5] = target: T5, human recombinant adrenergic α2A receptor (Homo sapiens, UniProt P08913); experiment: Adrenergic α2A radioligand binding ([3H]MK-912); set-up: Inhibition of ligand binding, Adren. alpha2A: concentration or dose not given beside the values; details: for Inhibition of ligand binding, Adren. alpha2A: percent inhibition of specific binding; for inhibition at 1 µM: compounds screened at 1 μM, read-out: Inhibition of ligand binding, Adren. alpha2A (percent inhibition of specific binding)
T5 construct: expressed in transfected cells; host or cells: insect Sf9 cells
T5 sequence (P08913 1-465): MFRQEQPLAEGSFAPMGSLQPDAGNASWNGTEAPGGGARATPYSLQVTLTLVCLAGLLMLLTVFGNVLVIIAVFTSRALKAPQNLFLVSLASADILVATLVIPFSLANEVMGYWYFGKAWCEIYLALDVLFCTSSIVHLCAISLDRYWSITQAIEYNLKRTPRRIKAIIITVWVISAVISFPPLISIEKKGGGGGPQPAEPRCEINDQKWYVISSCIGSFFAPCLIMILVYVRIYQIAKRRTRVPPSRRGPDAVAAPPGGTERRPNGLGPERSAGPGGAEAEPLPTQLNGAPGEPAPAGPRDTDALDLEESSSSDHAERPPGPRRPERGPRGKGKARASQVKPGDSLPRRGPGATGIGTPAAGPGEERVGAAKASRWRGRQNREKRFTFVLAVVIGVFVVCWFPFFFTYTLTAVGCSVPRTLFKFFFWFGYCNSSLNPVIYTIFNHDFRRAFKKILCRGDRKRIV
Outline: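 Membranes from Sf9 cells expressing the receptor were incubated with 1 nM [3H]MK-912 for 60 minutes at 25° C in 50 mM Tris-HCl pH 7.4, 12.5 mM MgCl2, 2 mM EDTA. 10 μM WB-4101 defined non-specific binding. Values are percent inhibition of specific bound radioactivity after filtration.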

[6] = percent inhibition of specific binding, screened at 1 μM, read-out: Inhibition of ligand binding, Hist. H1
[7] = compounds screened at 1 μM, read-out: Inhibition of ligand binding, Hist. H1 (percent inhibition of specific binding)

T4 sequence (P50406 whole entry): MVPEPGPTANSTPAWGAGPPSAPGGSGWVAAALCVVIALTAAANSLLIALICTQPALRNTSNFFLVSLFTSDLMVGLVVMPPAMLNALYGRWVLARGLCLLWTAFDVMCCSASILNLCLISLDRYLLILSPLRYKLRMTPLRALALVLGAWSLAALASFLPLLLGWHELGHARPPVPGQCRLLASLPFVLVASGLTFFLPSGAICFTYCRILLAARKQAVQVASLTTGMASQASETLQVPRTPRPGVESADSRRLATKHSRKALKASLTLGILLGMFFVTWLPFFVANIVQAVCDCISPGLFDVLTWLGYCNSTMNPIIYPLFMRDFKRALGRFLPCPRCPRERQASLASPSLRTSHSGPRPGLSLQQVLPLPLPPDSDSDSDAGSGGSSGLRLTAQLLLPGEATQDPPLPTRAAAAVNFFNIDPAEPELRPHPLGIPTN
T3 sequence (P14416 whole entry): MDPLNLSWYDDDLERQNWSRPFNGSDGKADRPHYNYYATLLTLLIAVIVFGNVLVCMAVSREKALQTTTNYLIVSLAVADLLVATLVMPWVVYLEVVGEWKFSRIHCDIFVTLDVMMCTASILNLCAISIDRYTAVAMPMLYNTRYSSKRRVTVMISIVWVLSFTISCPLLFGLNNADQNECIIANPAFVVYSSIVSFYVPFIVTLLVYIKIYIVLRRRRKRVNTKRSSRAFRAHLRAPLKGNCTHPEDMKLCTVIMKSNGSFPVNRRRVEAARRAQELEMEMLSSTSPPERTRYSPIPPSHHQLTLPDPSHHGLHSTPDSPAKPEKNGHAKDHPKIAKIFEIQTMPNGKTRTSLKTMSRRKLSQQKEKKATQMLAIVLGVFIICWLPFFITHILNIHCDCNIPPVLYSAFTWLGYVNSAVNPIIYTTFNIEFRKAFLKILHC
T1 sequence (P35367 whole entry): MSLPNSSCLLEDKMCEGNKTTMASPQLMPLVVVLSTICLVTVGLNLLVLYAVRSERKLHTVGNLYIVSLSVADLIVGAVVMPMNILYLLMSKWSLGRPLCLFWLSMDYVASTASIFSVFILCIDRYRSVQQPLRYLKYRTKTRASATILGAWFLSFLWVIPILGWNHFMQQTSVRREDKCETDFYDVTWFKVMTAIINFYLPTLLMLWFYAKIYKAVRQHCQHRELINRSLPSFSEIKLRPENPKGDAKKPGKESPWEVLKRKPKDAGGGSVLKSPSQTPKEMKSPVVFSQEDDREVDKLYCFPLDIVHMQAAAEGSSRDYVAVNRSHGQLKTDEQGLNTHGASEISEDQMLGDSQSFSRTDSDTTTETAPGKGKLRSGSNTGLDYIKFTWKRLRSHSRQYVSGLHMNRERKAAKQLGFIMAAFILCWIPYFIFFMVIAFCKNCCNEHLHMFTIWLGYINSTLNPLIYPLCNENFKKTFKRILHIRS

| Compound | inhibition at 1 µM [1, 6] [%] | Inhibition of ligand binding, Adren. alpha2B [2] [%] | Inhibition of ligand binding, Dop. D2L [3] [%] | Inhibition of ligand binding, Ser. 5-HT6 [4] [%] | Inhibition of ligand binding, Adren. alpha2A [5] [%] | inhibition at 1 µM [1, 7] [%] | inhibition at 1 µM [2] [%] | inhibition at 1 µM [3] [%] | inhibition at 1 µM [4] [%] | inhibition at 1 µM [5] [%] |
| --- | --- | --- | --- | --- | --- | --- | --- | --- | --- | --- |
| Cc1ccc2c(c1)c1c(n2CC(=O)N2CCOCC2)CCN(C)C1 [Compound 330, 2-(1,2,3,4-tetrahydro-2,8-dimethylpyrido[4,3-b]indol-5-yl)-1-morpholinoethanone] | 8 | 6 | −8 | 19 | 1 | – | – | – | – | – |
| Cc1ccc2c(c1)c1c(n2CCCc2ccc(C(F)(F)F)nc2)CCN(C)C1 [Compound 331, 5-(3-(6-(trifluoromethyl)pyridin-3-yl)propyl)-2,3,4,5-tetrahydro-2,8-dimethyl-1H-pyrido[4,3-b]indole] | 102 | 105 | 20 | 100 | 50 | – | – | – | – | – |
| CCOc1ccc(CCn2c3c(c4cc(C)ccc42)CN(C)CC3)cc1 [Compound 334, 5-[2-(4-Ethoxy-phenyl)-ethyl]-2,8-dimethyl-2,3,4,5-tetrahydro-1H-pyrido[4,3-b]indole] | 99 | 111 | 76 | 101 | 101 | – | – | – | – | – |
| Cc1ccc2c(c1)c1c(n2CCc2ccc(OC(C)(C)C)cc2)CCN(C)C1 [Compound 335, 5-(4-tert-butoxyphenethyl)-2,3,4,5-tetrahydro-2,8-dimethyl-1H-pyrido[4,3-b]indole] | 96 | 104 | 44 | 9 | 31 | – | – | – | – | – |
| COc1ccc(CCn2c3c(c4cc(Cl)ccc42)CN(C)CC3)cc1 [Compound 336, 8-Chloro-5-[2-(4-methoxy-phenyl)-ethyl]-2-methyl-2,3,4,5-tetrahydro-1H pyrido[4,3-b]indole] | 107 | 103 | 82 | 104 | 96 | – | – | – | – | – |
| COc1ccc(CCn2c3c(c4cc(Cl)ccc42)CN(C)CC3)cc1F [Compound 337, 5-(3-fluoro-4-methoxyphenethyl)-8-chloro-2,3,4,5-tetrahydro-2-methyl-1H-pyrido[4,3-b]indole] | 99 | 117 | 81 | 104 | 97 | – | – | – | – | – |
| CN1CCc2c(c3ccncc3n2CCc2ccccn2)C1 [Compound 481, 7-aza-2-methyl-5-(2-(pyridin-2-yl)ethyl)-2,3,4,5-tetrahydro-1H-pyrido[4,3-b]indole] | – | – | – | – | – | 4 | 19 | 16 | 14 | 3 |
| CN1CCc2c(c3ncccc3n2CCc2ccncc2)C1 [Compound 482, 9-aza-2-methyl-5-(2-(pyridin-4-yl)ethyl)-2,3,4,5-tetrahydro-1H-pyrido[4,3-b]indole] | – | – | – | – | – | -2 | 10 | 7 | 4 | -17 |
| CN1CCc2c(c3ccncc3n2CCc2ccncc2)C1 [Compound 483, 7-aza-2-methyl-5-(2-(pyridin-4-yl)ethyl)-2,3,4,5-tetrahydro-1H-pyrido[4,3-b]indole] | – | – | – | – | – | -5 | 12 | 0 | 13 | -7 |
| CN1CCc2c(c3ncccc3n2CCc2ccccn2)C1 [Compound 484, 9-aza-2-methyl-5-(2-(pyridin-2-yl)ethyl)-2,3,4,5-tetrahydro-1H-pyrido[4,3-b]indole] | – | – | – | – | – | 7 | 30 | 15 | 14 | 28 |
| Cc1ccc(CCn2c3c(c4cc(I)ccc42)CN(C)CC3)cn1 [Compound 485, 2,3,4,5-tetrahydro-8-iodo-2-methyl-5-(2-(6-methylpyridin-3-yl)ethyl)-1H-pyrido[4,3-b]indole] | – | – | – | – | – | 105 | 98 | 43 | 94 | 86 |
| CN1CCc2c(c3cc(I)ccc3n2CC(=O)N2CCCCC2)C1 [Compound 486, 2-(1,2,3,4-tetrahydro-8-iodo-2-methylpyrido[4,3-b]indol-5-yl)-1-(piperidin-1-yl)ethanone] | – | – | – | – | – | 28 | 7 | 0 | 14 | 4 |
| Cc1ccc(CCn2c3c(c4cc(Br)ccc42)CN(C)CC3)cn1 [Compound 487, 8-bromo-2-methyl-5-(2-(6-methylpyridin-3-yl)ethyl)-2,3,4,5-tetrahydro-1H-pyrido[4,3-b]indole] | – | – | – | – | – | 98 | 100 | 42 | 94 | 88 |
| CN1CCc2c(c3cc(Br)ccc3n2CC(=O)N2CCCCC2)C1 [Compound 516, 2-(8-bromo-2-methyl-3,4-dihydro-1H-pyrido[4,3-b]indol-5(2H)-yl)-1-(piperidin-1-yl)ethanone] | – | – | – | – | – | 49 | 21 | -4 | 9 | 3 |
| Cc1ccc2c(c1)c1c(n2CCc2nc(-c3ccccc3)cs2)CCN(C)C1 [Compound C1-5] | – | – | – | – | – | 100 | 113 | 36 | 101 | 92 |
| COc1ccc2c(c1)c1c(n2CCc2nc(-c3ccccc3)cs2)CCN(C)C1 [Compound C1-6] | – | – | – | – | – | 104 | 110 | 29 | 84 | 55 |
| CN1CCc2c(c3cc(F)ccc3n2CCc2nc(-c3ccccc3)cs2)C1 [Compound C1-7] | – | – | – | – | – | 99 | 113 | 25 | 91 | 88 |
| CN1CCc2c(c3ccccc3n2CCc2noc(-c3ccccc3)n2)C1 [Compound C4-1] | – | – | – | – | – | 93 | 94 | 14 | 51 | 95 |
| Cc1ccc2c(c1)c1c(n2CCc2noc(-c3ccccc3)n2)CCN(C)C1 [Compound C4-4] | – | – | – | – | – | 101 | 102 | 46 | 103 | 96 |
